Data taken from publication doi:10.1101/2024.08.14.606984v2 (biorxiv, 2024).

Target: GCN2 (Homo sapiens, UniProt Q9P2K8)
Test: SPR, steady state
Format: binding

Chain of GCN2 (Q9P2K8 whole entry): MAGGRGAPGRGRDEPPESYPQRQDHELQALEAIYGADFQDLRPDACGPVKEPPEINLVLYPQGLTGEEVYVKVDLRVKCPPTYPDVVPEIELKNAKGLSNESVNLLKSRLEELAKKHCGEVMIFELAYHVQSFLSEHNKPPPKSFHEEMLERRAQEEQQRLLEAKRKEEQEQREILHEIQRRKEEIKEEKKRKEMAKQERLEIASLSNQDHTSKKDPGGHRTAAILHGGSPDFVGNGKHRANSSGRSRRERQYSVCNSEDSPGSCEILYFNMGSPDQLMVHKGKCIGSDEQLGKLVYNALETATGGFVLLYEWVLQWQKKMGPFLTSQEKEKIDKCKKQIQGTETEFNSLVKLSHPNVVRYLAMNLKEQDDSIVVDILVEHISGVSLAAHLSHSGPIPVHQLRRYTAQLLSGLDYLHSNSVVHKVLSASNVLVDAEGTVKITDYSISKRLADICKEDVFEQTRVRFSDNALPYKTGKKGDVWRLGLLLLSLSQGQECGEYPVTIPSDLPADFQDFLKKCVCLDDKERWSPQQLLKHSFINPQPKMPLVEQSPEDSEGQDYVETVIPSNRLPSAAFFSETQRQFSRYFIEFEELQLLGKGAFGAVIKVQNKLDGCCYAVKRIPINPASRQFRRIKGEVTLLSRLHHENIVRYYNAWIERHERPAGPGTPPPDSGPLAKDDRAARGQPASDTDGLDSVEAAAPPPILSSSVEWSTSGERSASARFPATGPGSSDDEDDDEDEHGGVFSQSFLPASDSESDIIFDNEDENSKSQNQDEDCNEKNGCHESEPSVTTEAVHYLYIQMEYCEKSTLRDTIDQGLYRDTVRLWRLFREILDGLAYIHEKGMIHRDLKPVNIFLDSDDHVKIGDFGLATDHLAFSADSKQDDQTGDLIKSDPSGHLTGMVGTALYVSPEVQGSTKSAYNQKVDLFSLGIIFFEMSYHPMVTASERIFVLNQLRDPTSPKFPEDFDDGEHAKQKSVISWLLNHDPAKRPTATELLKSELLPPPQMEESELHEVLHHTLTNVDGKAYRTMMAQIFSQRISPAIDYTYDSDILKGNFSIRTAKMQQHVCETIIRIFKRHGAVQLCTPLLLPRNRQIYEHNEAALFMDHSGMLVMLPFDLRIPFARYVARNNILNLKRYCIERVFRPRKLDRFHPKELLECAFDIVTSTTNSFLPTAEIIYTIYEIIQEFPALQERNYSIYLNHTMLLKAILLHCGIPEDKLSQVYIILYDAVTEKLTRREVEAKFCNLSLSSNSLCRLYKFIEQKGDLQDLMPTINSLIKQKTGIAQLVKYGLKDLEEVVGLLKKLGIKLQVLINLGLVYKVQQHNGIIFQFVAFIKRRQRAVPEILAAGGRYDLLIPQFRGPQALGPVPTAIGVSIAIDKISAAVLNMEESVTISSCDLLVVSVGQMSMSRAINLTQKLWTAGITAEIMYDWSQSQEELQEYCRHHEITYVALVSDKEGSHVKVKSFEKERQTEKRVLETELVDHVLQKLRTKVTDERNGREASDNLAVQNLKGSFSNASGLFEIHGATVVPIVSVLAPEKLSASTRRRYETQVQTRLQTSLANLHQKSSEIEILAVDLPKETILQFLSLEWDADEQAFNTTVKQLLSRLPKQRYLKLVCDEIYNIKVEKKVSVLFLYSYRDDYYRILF

- Kd: 43.1 ± 2.5 µM
Structure (SMILES): CNc1ncc2cc(-c3cc(NC(=O)NCCC(C)(C)C)c(F)cc3C)c(C)nc2n1 [LY-3009120]
